# Experimental data as given in patent US10981932B2, “Macrocyclic indole derivatives” (Bayer Aktiengesellschaft, priority 2016, dated 2021).
# Where a name gives a salt, the structure may show the parent alone. Read-outs that look alike come from different tables or passages of the source.
# Key:
# MCL-1 = MCL-1 (Homo sapiens, UniProt Q07820); assay: Protein-protein interaction assay MCL-1/Noxa BH3 peptide (MCL-1 assay), TR-FRET; format: binding; conditions: MBP-MCL-1 / Noxa BH3-derived peptide, median
# Sequence of MCL-1 (Q07820 whole entry): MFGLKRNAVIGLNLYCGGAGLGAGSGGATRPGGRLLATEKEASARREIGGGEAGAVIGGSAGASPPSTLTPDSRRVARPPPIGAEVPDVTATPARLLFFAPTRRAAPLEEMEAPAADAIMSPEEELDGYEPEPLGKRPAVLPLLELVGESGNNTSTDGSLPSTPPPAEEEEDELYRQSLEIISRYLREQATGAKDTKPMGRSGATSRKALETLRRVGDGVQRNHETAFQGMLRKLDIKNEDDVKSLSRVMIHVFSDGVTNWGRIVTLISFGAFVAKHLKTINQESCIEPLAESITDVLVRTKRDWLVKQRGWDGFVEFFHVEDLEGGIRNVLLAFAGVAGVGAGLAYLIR
# Outline: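 Inhibition values were normalized between DMSO controls with all reagents and controls lacking MCL-1. The binding competition used 1 nM MBP-MCL-1 in pH 7 Tris buffer containing 50 mM KF and 100 mM NaCl, with a 10 min compound preincubation at 22 °C.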
# SUDHL5 [1] = assay: Induction of caspase-3/7 activity (Caspase-Glo 3/7), SUDHL5; format: cell-based; conditions: caspase-3/7 induction, SUDHL5 cells, 3 h treatment; median
# Outline: (§1)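 Apoptosis induction measured as caspase-3/7 activity (Caspase-Glo 3/7) in DLBCL lines after 3 h treatment at 37 °C; EC50 derived relative to the reference compound's maximal induction, with C0 fixed at 1.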
# SUDHL10 [2] = assay: Induction of caspase-3/7 activity (Caspase-Glo 3/7), SUDHL10; format: cell-based; conditions: caspase-3/7 induction, SUDHL10 cells, 3 h treatment, median
# Outline: as §1
# SUDHL5 [3] = assay: Anti-proliferative effect (CellTiter-Glo, 72 h), SUDHL5; format: cell-based; conditions: SUDHL5 cells, antiproliferation, 72 h incubation, median, read-out: Antiproli SUDHL5 [M] (median)
# Outline: (§2)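 After seeding, one plate is read right away by CellTiter-Glo luminescence to fix time zero. The treated plates stay at 37 °C in humidified air for 72 h and are then measured with the same reagent and 10 min incubation.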
# SUDHL10 [4] = assay: Anti-proliferative effect (CellTiter-Glo, 72 h), SUDHL10; format: cell-based; conditions: SUDHL10 cells, antiproliferation, 72 h incubation, median, read-out: Antiproli SUDHL10 [M] (median)
# Outline: as §2
# OPM2 = assay: Anti-proliferative effect (CellTiter-Glo, 72 h), OPM2; format: cell-based; conditions: OPM2 cells, median, read-out: IC50 antiproliferation assay OPM2 [M] (median)
# Outline: as §2
# A2780 = assay: Anti-proliferative effect (CellTiter-Glo, 72 h), A2780; format: cell-based; conditions: A2780 cells, median, read-out: IC50 antiproliferation assay A2780 [M] (median)
# Outline: as §2
# MV-4-11 = assay: Anti-proliferative effect (CellTiter-Glo, 72 h), MV-4-11; format: cell-based; conditions: MV-4-11 cells, median, read-out: IC50 antiproliferation assay MV-4-11 [M] (median)
# Outline: as §2
# SUDHL5 [5] = assay: Induction of cytotoxicity (CellTiter-Glo, 5 h), SUDHL5
# SUDHL10 [6] = assay: Induction of cytotoxicity (CellTiter-Glo, 5 h), SUDHL10
# [7] = read-out: Cytotox SUDHL5 [M] (median), SUDHL5 cells, cytotoxicity induction, CellTiter-Glo, 5 h incubation, median
# [8] = read-out: Cytotox SUDHL10 [M] (median), SUDHL10 cells, cytotoxicity induction, CellTiter-Glo, 5 h incubation, median
# [9] = Homo sapiens, SU-DHL10, 5 h, read-out: Cytotox SUDHL10 [M] (median), SUDHL10 cells, cytotoxicity induction, CellTiter-Glo, 5 h incubation, median
IC50 (MCL-1),EC50 (SUDHL5 [1]),EC50 (SUDHL10 [2]),IC50 (SUDHL5 [3]),IC50 (SUDHL10 [4]),IC50 (A2780),IC50 (MV-4-11),"IC50 (A2780; Homo sapiens, A2780, 72 h)","IC50 (MV-4-11; Homo sapiens, MV4-11, 72 h)","EC50 (SUDHL10 [2]; Homo sapiens, SU-DHL10, 3 h)","IC50 (SUDHL5 [3]; Homo sapiens, SU-DHL-5, 72 h)","IC50 (SUDHL10 [4]; Homo sapiens, SU-DHL10, 72 h)",Compound,IC50 (OPM2),IC50 (SUDHL5 [5]; [7]),IC50 (SUDHL10 [6]; [8]),"IC50 (OPM2; Homo sapiens, OPM-2, 72 h)","IC50 (SUDHL5 [5]; Homo sapiens, SU-DHL-5, 5 h, read-out: Cytotox SUDHL5 [M] (median), SUDHL5 cells, cytotoxicity induction, CellTiter-Glo, 5 h incubation, median)",IC50 (SUDHL10 [6]; [9])
0.0688 µM,18.3 µM,20.4 µM,5.72e-06 M,8.96e-06 M,> 3.3e-05 M,6.78e-06 M,,,,,,"Cn1nc(COc2ccc(N3CCN(S(=O)(=O)C4CC4)CC3)cc2)c2c1COCCCCn1c(C(=O)O)c(CCCOc3cccc4ccccc34)c3cccc-2c31 (single isomer, unassigned; enantiomer 1) [Example 1-12, 3-({4-[4-(cyclopropylsulfonyl)piperazin-1-yl]phenoxy}methyl)-1-methyl-7-[3-(naphthalen-1-yloxy)propyl]-1,10,11,12,13,15-hexahydropyrazolo[4′,3′:9,10][1,6]oxazacycloundecino[8,7,6-hi]indole-8-carboxylic Acid (Enantiomer 1)]",> 3.3e-05 M,1.73e-05 M,1.43e-05 M,,,
0.0068 µM,3.88 µM,4.47 µM,3.21e-06 M,3.83e-06 M,6.23e-06 M,1.57e-06 M,,,,,,"COc1ccccc1-c1ncc(OCc2nn(C)c3c2-c2cccc4c(CCCOc5cccc6ccccc56)c(C(=O)O)n(c24)CCCN(C)C3)cn1 (single isomer, unassigned) [Example 1-92, 11-({[2-(2-methoxyphenyl)pyrimidin-5-yl]oxy}methyl)-7,9-dimethyl-1-[3-(naphthalen-1-yloxy)propyl]-4,5,6,7,8,9-hexahydropyrazolo[3′,4′:7,8][1,5]diazecino[9,10,1-hi]indole-2-carboxylic acid-N-ethylethanamine Salt]",9.6e-06 M,2.9e-06 M,5.77e-06 M,,,
0.0542 µM,20.4 µM,18.8 µM,1.22e-05 M,,,,2.31e-05 M,1.21e-05 M,,,9.58e-06 M,"CN1CCCn2c(C(=O)O)c(CCCOc3cccc4ccccc34)c3cccc(c32)-c2c(COc3ccc(S(C)(=O)=O)cc3)nn(C)c2C1 (single isomer, unassigned) [Example 1-49, (−)-7,9-dimethyl-11-{[4-(methylsulfonyl)phenoxy]methyl}-1-[3-(naphthalen-1-yloxy)propyl]-4,5,6,7,8,9-hexahydropyrazolo[3′,4′:7,8][1,5]diazecino[9,10,1-hi]indole-2-carboxylic Acid]",> 3.3e-05 M,3.3e-05 M,,,,2.5e-05 M

# Continued, compound first:
Compound,IC50 (MCL-1),EC50 (SUDHL5 [1]),EC50 (SUDHL10 [2]),IC50 (SUDHL5 [3]),IC50 (SUDHL10 [4]),IC50 (A2780),IC50 (MV-4-11),"IC50 (A2780; Homo sapiens, A2780, 72 h)","IC50 (MV-4-11; Homo sapiens, MV4-11, 72 h)","EC50 (SUDHL10 [2]; Homo sapiens, SU-DHL10, 3 h)","IC50 (SUDHL5 [3]; Homo sapiens, SU-DHL-5, 72 h)","IC50 (SUDHL10 [4]; Homo sapiens, SU-DHL10, 72 h)",IC50 (OPM2),IC50 (SUDHL5 [5]; [7]),IC50 (SUDHL10 [6]; [8]),"IC50 (OPM2; Homo sapiens, OPM-2, 72 h)","IC50 (SUDHL5 [5]; Homo sapiens, SU-DHL-5, 5 h, read-out: Cytotox SUDHL5 [M] (median), SUDHL5 cells, cytotoxicity induction, CellTiter-Glo, 5 h incubation, median)",IC50 (SUDHL10 [6]; [9])
"Cc1c2c(nn1C)CN(C)CCCCn1c(C(=O)O)c(CCCOc3cccc4ccccc34)c3cccc-2c31 (single isomer, unassigned; enantiomer 1) [Example 068, 2,3,14-trimethyl-7-[3-(naphthalen-1-yloxy)propyl]-10,11,12,13,14,15-hexahydro-2H-pyrazolo[3′,4′:8,9][1,6]diazacycloundecino[10,11,1-hi]indole-8-carboxylic Acid (Enantiomer 1)]",0.00442 µM,1.63 µM,11.9 µM,2.53e-06 M,1.87e-06 M,> 3.3e-05 M,,1.85e-05 M,1.69e-05 M,,,,,2.25e-06 M,5.02e-06 M,9.82e-06 M,,
"CC(C)c1c2c(nn1C)CN(C)CCCn1c(C(=O)O)c(CCCOc3cccc4ccccc34)c3cccc-2c31 (single isomer, unassigned; enantiomer 1) [Example 114, 7,10-dimethyl-1-[3-(naphthalen-1-yloxy)propyl]-11-(propan-2-yl)-4,5,6,7,8,10-hexahydropyrazolo[3′,4′:7,8][1,5]diazecino[9,10,1-hi]indole-2-carboxylic acid (enantiomer 1)]",0.00303 µM,8.86 µM,,,,,,7.06e-06 M,4.54e-06 M,17.7 µM,3.28e-06 M,5.31e-06 M,,,,1.1e-05 M,6.61e-06 M,8.59e-06 M
